The record followed here is patent US20220401414A1, “TREATMENT AND PREVENTION OF A NEURODEGENERATIVE DISORDER” (Inflazome Limited, priority 2019, published 2022).

A short description of this data set: Study A: blood-brain barrier penetration, striatal MetaQuant microdialysis in healthy mice after oral dosing. In kind it is in vivo, C57B1/6 mice. As to conditions: for average peak levels in left and right striatal dialysate: MetaQuant dialysate, not corrected for recovery; for time of average peak levels after compound administration: striatal dialysate. The procedure: The present study was designed to determine the free concentration of the compound of formula (I) in the left and right striatum of freely-moving adult male mice after oral administration.
Adult male C57B1/6 mice (22-28 g; Envigo, the Netherlands) were used for the experiments. Following arrival, animals were housed in groups of 5 in polypropylene cages (40×50×20 cm) with wire mesh top in a temperature (22±2° C.) and humidity (55±15%) controlled environment on a 12 hour light cycle (07.00-19.00). Following surgery, animals were housed individually (cages 30×30×40 cm). Standard diet (SDS Diets, RM1 PL) and domestic quality mains water were available ad libitum.
Mice were anesthetized using isoflurane (2% and 500 mL/min O2). Before surgery, Finadyne (1 mg/kg, s.c.) was administered for analgesia during surgery and the post-surgical recovery period. A mixture of bupivacaine and epinephrine was used for local analgesia of the incision site.
The animals were placed in a stereotaxic frame (Kopf instruments, USA). MetaQuant microdialysis probes with a 3 mm exposed polyacrylonitrile membrane (MQ-PAN 33) were implanted bilaterally into the left and right striatum (coordinates for the tip of the probe: AP=+0.8 mm (to bregma), ML=+/−1.7 mm (to midline), DV=−4.0 mm (to dura) with an angle of 0° and the incisor bar set at 0.0 mm. All coordinates were based on “The mouse brain in stereotaxic coordinates” by Paxinos and Franklin (2008). The probes were attached to the skull with a stainless-steel screw and dental cement.
The monosodium salt of the compound of formula (I) was formulated in sterilized tap water at concentrations (with respect to the non-salt form) of 0.2 and 4 mg/mL for oral dosing at 5 mL/kg; 1 mg/kg and 20 mg/kg, respectively.
The MetaQuant microdialysis probes were connected with flexible PEEK tubing (Western Analytical Products Inc. USA; PK005-020) to a microperfusion pump (Harvard) and perfused with a slow flow of artificial CSF (perfusate), containing 147 mM NaCl, 3.0 mM KCl, 1.2 mM CaCl2, and 1.2 mM MgCl2, at a flow rate of 0.12 μL/min and a carrier flow of UP+0.02 M FA+0.04% ascorbic acid at o.8 μL/min. After a minimum of two hours of prestabilisation, microdialysis samples were collected in 60 minute intervals. Following collection of two baseline samples, the compound of formula (I) (1 or 20 mg/kg in sterilised tap water) was administered orally at t=0 minutes. Samples were collected into mini-vials (Microbiotech/se AB, Sweden; 4001029) using an automated fraction collector (UV 8301501, TSE, Univentor, Malta). At the end of the experiment, the animals were sacrificed.
Microdialysate samples from MetaQuant probes contained a nominal volume of 55.2 μL dialysate. Levels of the compound of formula (I) in MetaQuant microdialysate samples were quantified by LC-MS/MS.
The dialysate samples were mixed with acetonitrile and an aliquot of this mixture was injected into the LC system by an automated sample injector (SIL-20AD, Shimadzu, Japan). Calibrators and in-run QC samples were prepared in analytical dialysate of the same composition as the microdialysate samples. […]
Suitable in-run calibration curves were fitted using weighted (1/x) regression and the sample concentrations were determined using these calibration curves. […]

For the compound `CC(C)n1ccc(S(=O)(=O)NC(=O)Nc2c3c(cc4c2CCC4)CCC3)n1` [compound of formula (I)], the “average peak levels in left and right striatal dialysate” value (1 mg/kg oral (monosodium salt in sterilised tap water)) fell in the range of 12 to 13 nM; the “average peak levels in left and right striatal dialysate” value (20 mg/kg oral (monosodium salt in sterilised tap water)) lay within 201 to 243 nM. Besides, the “time of average peak levels after compound administration” value by setting is: (1 mg/kg oral) 5 h; (20 mg/kg oral) 6 h. Further, the blood-brain barrier penetration entry (oral administration) is reported as “cross the blood-brain barrier following oral administration”.
